# Reference: patent publication US8916571B2, “Methods of treating cancer using inhibitors of 5′-methylthioadenosine phosphorylase” (Albert Einstein College of Medicine of Yeshiva University, priority 2006, dated 2014)
# Entries after “also recorded” stand apart in the source; their conditions may differ.
# Key:
# FaDu cells [1] = experiment: Cell cycle and apoptosis analysis of FaDu cells (propidium staining, FACS); format: cell-based, human; conditions: for Apoptosis / G1 / G2 / S: 6 days
# Procedure: (§1) FaDu cells were maintained in MEM Eagle's media supplemented with 10% fetal bovine serum, 100 units/ml penicillin, 100 μg/mL streptomycin, 0.1 mM non essential amino acids and 1 mM sodium pyruvate. Cell survival was evaluated using the WST-1 assay (Kicska G A, long Li, Honig H, et al. Proc Natl Acad Sci USA 2001; 98:4593-98). Cells were seeded onto 96 well plates at a density of 10^4 cells per well, with either no additions, 1 μM compound (2), 20 μM MTA or 1 μM compound (2)+20 μM MTA, IC50 was determined following the manufacturer's protocol (Roche Applied Science, Ind.). Cells were grown and measured in triplicate or quadruplicate and the error bars show the mean±SD of the multiple samples.
# FaDu cells were subjected to six days in culture using the same conditions described as for Example 4, before staining with propidium […] and FACS cell sorting analysis.
# [2] = test system: mouse lung cancer cells (3LL); experiment: Mouse 3LL lung cancer cell culture study; format: cell-based
# Procedure: Growth of 3LL and RM1 cells was in Dulbecco's modified Eagle's medium containing serum and antibiotics with 5 mM sodium pyruvate and 0.25 mM non essential amino acid mixture (Gibco). Compound (1) was added as a sterile solution and MTA was absent or present at 20 μM.
# PC3 cells [3] = experiment: Time dependent proliferation of PC3 cells (WST-1 assay); format: cell-based, human; conditions: 1 μM compound + 20 μM MTA
# Procedure: as §1, with “PC3” for “FaDu”, “Hong” for “Honig”, “MTA.” for “MTA,”
# SCC25 cells = experiment: Time dependent proliferation of SCC25 cells (WST-1 assay); format: cell-based, human; conditions: 1 μM compound + 20 μM MTA
# Procedure: as §1, with “SCC25 cells were” for “FaDu cells were”, “long Li, Hong H, et” for “long Li, Honig H, et”, “1 μM MT-compound (2), 20” for “1 μM compound (2), 20”, “(2)+20 μM MTA. IC50 was” for “(2)+20 μM MTA, IC50 was”
# FaDu cells [4] = experiment: Time dependent proliferation (WST-1) and phase contrast microscopy of FaDu cells; format: cell-based, human
# Procedure: as §1
# FaDu cells were subjected to six days in culture using the same conditions described as for Example 4.
# [5] = test system: normal human fibroblast cells (GM02037); experiment: Cytotoxicity on normal human fibroblast cells; format: cell-based; conditions: GM02037 cells treated with compound and MTA for 3 weeks
# Procedure: In order to determine whether the inhibition is selective for malignant cells, normal human fibroblast cells (GM02037) were also treated with compound (2) and MTA for 3 weeks. […] This selectivity is a further indication that the MTAP inhibitors described above are useful agents for the treatment of head and neck cancer.
# FaDu xenografts = experiment: FaDu xenograft study in NOD-SCID mice; format: in vivo, mouse
# Procedure: NOD-SCID mice (6-8 weeks old) were obtained from Jackson Laboratory (Bar Harbor, Me.). FaDu cells (10^6) were inoculated into the dorsum of the hind foot. After 5 days, mice were treated with 9 mg/kg or 21 mg/kg body weight of compound (2) in drinking water or by daily i.p. injections of 5 mg/kg body weight of compound (2). After inoculation mice were assigned to treatment or control groups (n=5). Tumor volume (V) was determined from: V=(4/3)*(22/7)*1/8*(length*width*height). Differences between treatment cohorts were determined using the Student's t test. Mice were weighed every 4-5 days, monitored for hair loss, loss of appetite, vomiting and diarrhea. Total and differential blood and bone marrow analyses were performed after treatment with compound (2).
# [6] = test system: TRAMP (transgenic adenocarcinoma of mouse prostate) mice; experiment: Treatment of TRAMP mice (tumour mass, metastasis, MRI, histology, polyamines); format: in vivo; conditions: for prostate cancer progression: alone or in combination with MTA; for tumour weight upon dissection: TRAMP mouse treated with 1 mM compound
# Procedure: MRI experiments were performed using a 9.4T 21 cm bore horizontal bore magnet (Magnex Scientific) Varian INOVA MRI system (Fremont, Calif.) equipped with a 28 mm inner diameter quadrature birdcage coil. Mice were anesthetized with isoflurane inhalation anesthesia (1-1.5% in 100% O2 administered via a nose cone) and positioned in the MRI coil. Body temperature was maintained (37-38° C.) using a homeothermic warming system. After acquiring scout images, multi-slice spin-echo imaging with an echo time of 18 ms and a repetition time of 400 ms ms was performed. A 40 mm field of view with a 256×256 matrix size was used. Nine to 15 slices along the transverse, sagittal, and coronal planes were acquired in each multi-slice experiment with a slice thickness of 1 mm and the gap between slices of 0.5 mm. MRI data were processed off-line with MATLAB-based MRI analysis software.
# (§2) Spent media and perchloric acid extracts of both PC3 cells and tissue samples were subjected to purification via cation exchange chromatography and dansyl-derivatized with minor changes. Disposable 10 ml BIO-RAD columns were centrifuged at 4,000 rpm for 3 minutes. Sodium carbonate used for derivatization was adjusted to pH 9.3 and the concentration of dansyl-chloride was adjusted to 100 mM. Dansyl-polyamines were quantitated by a Waters HPLC/Fluorescence system. A Phenomenex Luna 5μ C18 column was used with a mobile phase of 30% acetonitrile in a 50 mM ammonium acetate buffer at pH 6.8 (eluent A) and 100% acetonitrile (eluent B). Fluorescence detection was monitored by excitation at 338 nm and emission at 500 nm.
# Long-Term: Sterile solutions of 100 μM compound (2) (pH ˜6.4). Water bottles were autoclaved prior to filling with sterile inhibitor solutions. Water consumption was monitored every other day, with fresh inhibitor solution being administered to prevent bacterial growth. Mice were control-sacrificed and tissues (genitourinary system, liver, lungs) were collected for histology and polyamine analysis. Mass and dimensions of excised genitourinary system tumours were recorded. Sections of small intestine were also removed for toxicity analysis via H&E staining.
# PC3 cells [7] = experiment: Quantitation of polyamines in PC3 cells and spent media (HPLC fluorescence); format: cell-based, human
# Procedure: PC3 cells were cultured and treated in triplicate as follows: untreated control, 20 μM substrate (MTA) alone, 1 μM compound (2) alone, or a combination of both substrate and inhibitor. Both cells and spent media were harvested at 1, 6, and 12 days for polyamine analysis by HPLC fluorescence.
# as §2
# PC3 cells [8] = experiment: Clonogenic survival assay of PC3 cells; format: cell-based, human; conditions: combination treatment with MTA, approximately 2 weeks
# Procedure: • 1. 60% confluent plates of experimental cell line was taken and subjected to trypsinization • 2. Single cell suspension of the experimental cell line was made in the regular growth medium and number of cells per mililiter of suspension counted • 3. A fixed low number of cells were plated out in a volume of 3 ml of growth medium in each well of 6 well culture dishes and incubated overnight at 37° C. in a CO2 incubator • 4. Measured volumes of the inhibitor and substrate solutions in sterile deionised cell culture water was added to each well of the 6 well plates. Typically each concentration of inhibitor and/or substrate was added in triplicate wells to calculate error bars. […] At the end of the period of incubation growth medium was removed from each well, attached cells were washed once with PBS and fixed by addition of […] Formalin solution to each well and keeping at room temperature for ˜1 hour. • 7. […] Number of crystal violet stained colonies in each well containing more than 60 cells per colony was counted. • 10. Assuming each colony originated from a single surviving cell post-treatment and taking the number of colonies in the untreated control well as 1, the fraction of surviving cells in each well was calculated and plotted in a graph. […]
# Cal27 cells = Cal27 cells grown 8 days with compound and MTA; format: cell-based; conditions: 1 μM compound + 20 μM MTA, G2/M arrest and apoptosis
# Procedure: FIGS. 25A and 25B show Cal27 cells grown for 8 days as control (untreated), in the presence of 20 μM MTA, 1 μM compound (2) alone or in combination (1 μM compound (2)+20 μM MTA).
# liver polyamine levels = experiment: Short-term treatment of mice, liver polyamine analysis; format: in vivo, mouse; conditions: short-term treatment (24, 48 hours, 7 days), 100 μM in drinking water
# Procedure: C56BI/6 mice were treated with 100 μM compound (2) via their drinking water and sacrificed at 24, 48 hours, and 7 days. Livers were immediately removed for polyamine analysis. TRAMP mice were treated approximately 6-8 months with 100 μM compound (2) via their drinking water and control sacrificed. Livers were removed for polyamine analysis.
# as §2
# Short-Term: Mice were treated with sterile solutions of 100 μM compound (2) (pH ˜6.4). Water bottles were autoclaved prior to filling with sterile inhibitor solutions. Mice were sacrificed at 1, 2, and 7 days, with three mice in each group, with the control group sacrificed after 7 days. […]
# [9] = TRAMP mice, 100 μM in drinking water, n=12, 29 ± 7 weeks treated
smiles,measurement,setting,value
"CSC[C@H]1O[C@@H](n2cnc3c(N)ncnc32)[C@H](O)[C@@H]1O [MTA, methylthioadenosine]",Apoptosis,FaDu cells [1]; single agent,6.66%
same,G1,FaDu cells [1]; single agent,79.67%
same,G2,FaDu cells [1]; single agent,9.91%
same,S,FaDu cells [1]; single agent,10.42%
Nc1ncnc2c(CN3CC(O)[C@@H](CSCc4ccccc4)C3)c[nH]c12 (stereo partly drawn) [compound (1)],response of mouse lung cancer cells in culture,[2]; in the absence of MTA,not responding
same,response of mouse lung cancer cells in culture,[2]; in the presence of 20 μM MTA,responding
CSC[C@H]1CN(Cc2c[nH]c3c(N)ncnc23)C[C@@H]1O [compound (2)],stopping cell cycling / apoptosis,FaDu cells [1]; in combination with MTA,effective for stopping cell cycling
same,cell proliferation,PC3 cells [3],reduces cell proliferation
same,cell proliferation,SCC25 cells,reduces cell proliferation
same,cell proliferation,FaDu cells [4]; 1 μM compound + 20 μM MTA,reduces cell proliferation
same,cell growth (phase contrast photographs),"FaDu cells [4]; 5 days, inhibitor compound + MTA",effective in inhibiting cell growth
same,cytotoxicity,[5],No cytotoxicity was observed
same,regrowth of tumor after treatment removed,"FaDu xenografts; 28 days after end of 28 day therapy, two highest doses",no regrowth of tumor
same,"animal weight, total and differential blood counts vs control","FaDu xenografts; NOD-SCID mice, after 28 day treatment",No significant differences
same,growth of established FaDu xenografts,"FaDu xenografts; NOD-SCID mice, oral or i.p., with or without MTA",significantly slower than in controls; also recorded: significantly delays the growth
same,Metastatic Cancer,[6]; [9],8%
same,Tumor Size,[6]; [9],1.7 ± 0.8 g
same,prostate cancer progression,[6]; TRAMP mice,inhibited
same,"toxicity: intestinal crypts (H&E), hair loss, GI problems","[6]; TRAMP mice, long-term treatment","No alterations, inflammations, or irregularities were observed"
same,tumour weight upon dissection,[6]; dissection at 34 weeks of age (Panel E),0.41 g
same,tumour weight upon dissection,[6]; dissection at 39 weeks of age (Panel F),0.64 g
same,TRAMP liver or GUS polyamine levels,"[6]; extended treatment, 100 μM in drinking water",no significant alterations
same,"size and incidence of preinvasive tumors, incidence of invasive cancer and metastasis","[6]; treated TRAMP mice, histology",decreased
same,intracellular PUT levels,"PC3 cells [7]; 1 μM compound + 20 μM MTA, 1 day",3.03×10^−3±2.86×10^−2 pmoles PUT/mg protein
same,SPN levels in spent media,"PC3 cells [7]; compound + MTA, 1 day",slightly decreased
same,increase in intracellular PUT levels vs control,"PC3 cells [7]; compound + MTA, 1 day",6 fold
same,increase in intracellular SPD levels vs control,"PC3 cells [7]; compound + MTA, 1 day",~2.5 fold
same,increase in spent media PUT levels vs control,"PC3 cells [7]; compound + MTA, 1 day",2 fold
same,intracellular SPD levels,"PC3 cells [7]; compound + MTA, 1 day",7.19×10^−3±4.38×10^−2 pmoles SPD/mg protein
same,spent media PUT levels,"PC3 cells [7]; compound + MTA, 1 day",1.19×10^3±2.04×10^−1 pmoles PUT/mL spent media
same,PUT level vs control,"PC3 cells [7]; compound + MTA, 6 days",elevated
same,SPD level vs control,"PC3 cells [7]; compound + MTA, 6 days",elevated
same,decrease in cellular SPN levels vs control,"PC3 cells [7]; compound + MTA, 6 days",roughly 0.5 fold
same,levels of PUT in spent media,"PC3 cells [7]; compound + MTA, 6 days",2.41×10^−3±7.35×10^−1 pmoles PUT/mL spent media
same,levels of PUT in spent media relative to control,"PC3 cells [7]; compound + MTA, 6 days",almost double that of the control
same,cellular SPD levels,"PC3 cells [7]; compound + MTA, day 12",9.05×10^−3±1.09×10^−3 pmoles SPD/mg protein
same,intracellular PUT levels vs controls,"PC3 cells [7]; compound + MTA, day 12",significantly higher than controls
same,effect on PC3 cells in clonogenic assay,PC3 cells [8],cytostatic effect
same,number of viable Cal27 cells,Cal27 cells,decreased
same,polyamine levels of mice livers,liver polyamine levels,not significantly altered
CSC[C@H]1N[C@@H](c2c[nH]c3c(N)ncnc23)C(O)C1O (stereo partly drawn) [compound (3)],Apoptosis,FaDu cells [1]; MTA+compound,29.41%
same,G1,FaDu cells [1]; MTA+compound,8.26%
same,G2,FaDu cells [1]; MTA+compound,60.49%
same,S,FaDu cells [1]; MTA+compound,31.25%
same,Apoptosis,FaDu cells [1]; single agent,7.89%
same,G1,FaDu cells [1]; single agent,72.06%
same,S,FaDu cells [1]; single agent,17.98%
same,prostate cancer progression,[6]; TRAMP mice,inhibits prostate cancer progression
